Entries after “also recorded” stand apart in the source; their conditions may differ.
Key:
C57BL/6 mice [1] = assay: oral glucose tolerance test (OGTT) in HF diet mice; type: in vivo; conditions: 7 weeks
Procedure: (§1) The numbers of mice in Experiment 4 were the same as in Experiment 3, and mice were divided as four groups, “control”, “HF diet”, “HF diet+pioglitazone” and “HF diet+compound 12” groups.
(§2) The method and conditions for performing Experiment 7 were similar to those in Experiments 3 and 4, wherein C57BL/6 mice were grouped as five groups, (a) “Control” group (n=6), (b) “HF diet” group (n=7); (c) “HF diet+pioglitazone” group (oral dosage: 6.75 mg/kg/day pioglitazone, n=8); (d) “HF diet+compound 26×1” group: the mice were fed with high-fat-percentage feed (at least 40% fat) for a long-term period for inducing obesity and metabolic syndromes and simultaneously administered with compound 26 (oral dosage: 6.75 mg/kg/day, n=11); and (e) “HF diet+compound 26×5” group (oral dosage: 33.75 mg/kg/day compound 26, n=12).

3T3-L1 adipocytes [2] = assay: lipid droplet formation in 3T3-L1 adipocytes (Oil-Red O staining); type: cell-based; conditions: insulin 3.2×10^−7 M, RSZ, PIO, chalcone derivatives 30 μg/ml, DMEM 25 mM D-glucose, 4 days
Procedure: After two days of differentiation, 3T3-L1 cells were treated without (control) or with insulin (3.2×10^−7 M), RSZ (30 μg/ml), PIO (30 μg/ml), and chalcone derivatives (30 μg/ml) in DMEM containing 25 mM D-glucose. After 4 days, lipid droplets were observed by Oil-Red O staining (data not shown).

C57BL/6 mice [3] = assay: fasting blood glucose level of HF diet mice; type: in vivo; conditions: oral 6.75 mg/kg/day, 7 weeks, FIG. 3(a)
Description: (§3) Please refer to FIG. 2, C57BL/6 mice were grouped as four groups. (a) “Control” group (normal healthy animal group): the mice were fed with normal feed. (b) “High-fat (HF) diet” group (unhealthy negative control group): the mice were fed with high-fat-percentage feed (at least 40% fat) for a long-term period for inducing obesity and metabolic syndromes. (c) “HF diet+pioglitazone” group (clinical administration control group): the mice were fed with high-fat-percentage feed (at least 40% fat) for a long-term period for inducing obesity and metabolic syndromes and simultaneously administered with the clinically anti-diabetes TZD, pioglitazone (oral dosage: 6.75 mg/kg/day). […] The number of mice in the groups (a) to (d) were 5, 5, 6 and 13 respectively.
as §1

C57BL/6 mice [4] = assay: body weight gain of high-fat diet induced obesity mice; type: in vivo; conditions: HF diet C57BL/6 mice
Description: as §3, §2

3T3-L1 adipocytes [5] = assay: glucose consumption (remaining glucose) in culture medium of 3T3-L1 adipocytes; type: cell-based; conditions: FIG. 1; 30 μg/ml, medium glucose 300 mg/dl, remaining glucose after 24 hours
Procedure: After precursor adipocytes 3T3-L1 were induced as the matured adipocytes, culture medium with glucose (concentration of 300 mg/dl) and drugs were added, and the concentration of the remaining glucose in the culture medium were measured after 24 hours.
Adipose tissues are major sites for postprandial glucose uptake. Therefore, in vitro anti-diabetic screening model based on measuring glucose consumption after 24 hours in culture medium of 3T3-L1 adipocytes was developed. […] Accordingly, 60 chalcone derivatives with and without substitutions on A-ring were examined in our developed model. […] Structure-activity relationship (SAR) analyses data are also determined.

3T3-L1 adipocytes [6] = assay: adipocyte death / toxicity to adipocytes; conditions: 30 μg/ml, matured 3T3-L1 adipocytes, 24 hours

**Q.** Which “glucose intolerance (OGTT)” value (C57BL/6 mice [1]; HF diet mice, oral 6.75 mg/kg/day, FIG. 3(b), 6.75 mg/kg/day) does the source give for `COc1ccc(/C=C/C(=O)c2ccccc2Br)cc1` [Compound 12, (E)-1-(2-bromophenyl)-3-(4-methoxyphenyl)prop-2-en-1-one] here?
**A.** Its value is “significantly inhibit the occurrence of glucose intolerance; also recorded: inhibition of glucose intolerance”.

**Q.** What about the “formation of lipid droplets” value (3T3-L1 adipocytes [2]) of the same compound?
**A.** The value was “significantly prevent the formation of lipid droplets”.

**Q.** And the “fasting blood glucose level” value (C57BL/6 mice [3])?
**A.** The value was “significantly inhibit the increase of blood glucose level; also recorded: inhibition of the blood glucose level”.

**Q.** What about the body weight gain (C57BL/6 mice [4]; oral dosage 6.75 mg/kg/day, FIG. 2) of the same compound?
**A.** Its body weight gain is “significantly inhibit the body weight gain; also recorded: inhibited”.

**Q.** And the “glucose absorption activity of adipocytes 3T3-L1 (anti-hyperglycemic ability)” value (3T3-L1 adipocytes [5])?
**A.** Its value is “best anti-hyperglycemic ability; also recorded: best activity”.

**Q.** What about the “adipocyte death / toxicity to adipocytes” value (3T3-L1 adipocytes [6]) of the same compound?
**A.** The value was “didn't result in adipocyte death”.

**Q.** With `COc1ccc(/C=C/C(=O)c2ccccc2I)cc1` [Compound 26, (E)-1-(2-iodophenyl)-3-(4-methoxyphenyl)prop-2-en-1-one] as the compound, how does the “glucose intolerance / insulin resistance” value (C57BL/6 mice [1]; HF diet C57BL/6 mice, oral dosage 6.75 or 33.75 mg/kg/day, FIG. 6) read?
**A.** The value was “significantly prevents obesity and insulin resistance; also recorded: inhibition of glucose intolerance”.

**Q.** And the “formation of lipid droplets” value (3T3-L1 adipocytes [2])?
**A.** The value was “significantly prevent the formation of lipid droplets”.

**Q.** What about the “body weight / obesity” value (C57BL/6 mice [4]; oral dosage 6.75 or 33.75 mg/kg/day, FIG. 5) of the same compound?
**A.** The value was “significantly prevents obesity; also recorded: inhibited”.

**Q.** What about the “glucose absorption activity of adipocytes 3T3-L1 (anti-hyperglycemic ability)” value (3T3-L1 adipocytes [5]) of the same compound?
**A.** Its value is “best anti-hyperglycemic ability”.

**Q.** What about the “adipocyte death / toxicity to adipocytes” value (3T3-L1 adipocytes [6]) of the same compound?
**A.** Its value is “didn't result in adipocyte death”.
